One molecule from US11992011B2, “Compounds for controlling plant pathogens” (VIB VZW, priority 2017, dated 2024) can be followed below.

The structures appear in SMILES notation.

One series concerns Meloidogyne incognita. Description: M. incognita infection in DIECA-treated tomato (Example 18). The series is classed as in vivo. As to conditions: PA together with DIECA. Here is the method:
Infection experiments with M. incognita were performed in the same manner as those with M. graminicola, except that plants were harvested 31 days after inoculation instead of 14 days. At this point, the plants were phenotyped by measuring the root length with a ruler and in some experiments by measuring leaf area using the EasyLeafArea software (Easlon and Bloom, 2014) and by determining shoot dry mass after 72 hours of drying in an oven at 70° C. Galls were stained and counted as described above.
To determine whether C4H inhibitors depend on this hormonal pathway, it was tested whether tomato plants treated with the chemical inhibitor of jasmonic acid biosynthesis diethyldithiocarbamate (DIECA) (Farmer et al., 1994) still responded to PA treatment.

Another series deals with Heterodera schachtii. The series is described as follows: Heterodera schachtii infection in sugar beet (Example 9). Format: in vivo. As to conditions: 10 μM PA. Here is the method: Sugar beet seeds (cultivar Jolgeh) were germinated for five days at 25° C. on sterile potting soil saturated with distilled water. Seedlings were transferred to SAP tubes, which were placed in a growth chamber at 24° C. (16h per day of fluorescent lighting). The first two days after transfer, the tubes were covered with a polyethylene film (Saran Film, Dow Chemicals, Midland, USA) to prevent excessive evaporation. Seedlings were watered three times per week with 8 ml of Hoagland solution.
Cysts were collected from sugar beets (cv. Jolgeh) kept in a growing chamber at 21° C. through a flotation protocol. Plant roots and their surrounding soil were placed in a water bath at room temperature and gently agitated, followed by decanting and sieving to allow collection of cysts. Cysts were are-dried for two days and stored until use.
Hatching of cysts was induced by exposing them to a zinc chloride solution (3 mM in distilled water) at 25° C. for three days. Five 100 μl samples were taken from this suspension. The number of J2 juveniles in each sample was counted and the results were averaged. Sugar beet plants were inoculated fourteen days after transfer to SAP with the required volume of suspension to inoculate each plant with an average of 250 J2 nematodes.
Infection experiments with H. schachtii were performed by inoculating host plants 14 days after transfer to SAP by introducing 250 J2 juveniles to their root system using a micro pipette. Plants were harvested 31 days after inoculation. At this point, the plants were phenotyped by measuring the root and shoot length with a ruler. Cysts were collected through a sucrose flotation protocol and then counted and microscopically assessed for maturity.
To test whether the compounds of the invention are effective against other nematodes and in other plant species, PA was tested on the interaction between the dicot crop sugar beet (Beta vulgaris) and the cyst nematode Heterodera schachtii. At this point, it was not known whether dicots would tolerate PA as well as monocots and so a much lower dose (10 μM) was used instead.

Series [1] concerns Pseudomonas syringae DC3000. Description: Pseudomonas syringae toxicity experiment in liquid culture (Example 21). Format: cell-based. The settings on record: 100 μM, twenty-four hours of continuous exposure. Here is the method: A glycerol stock of P. syringae pv. DC3000 kept at−80° C. was spotted on petri dishes containing King's B agar amended with 75 μg/ml rifampicine (Duchefa Biochemie, Haarlem, the Netherlands). The plates were incubated in the dark at 28° C. for one week. At this time point, glass test tubes containing 5 ml of liquid King's B each (without rifampicin) were inoculated with cells from the plates and placed on an orbital shaker at 200 rpm for 24 hours at 28° C. 100 μl of this liquid inoculum was transferred to fresh glass test tubes containing 5 ml of liquid King's B each (without rifampicin) amended either with 100 μM of PA or a corresponding control, which were placed on an orbital shaker at 200 rpm for 24 hours at 28° C. At this time point, the cells were diluted ten-fold with liquid King's B medium and the OD600 of the resulting suspension was determined using a spectrophotometer (BioRad SmartSpec Plus), with sterile King's B as a blanc.
Prior to inoculation, the effect of piperonylic acid on Pseudomonas syringae DC3000 itself was also verified by growing the bacteria on liquid culture amended with piperonylic acid or a corresponding control and measuring the OD600 (as described in the materials and methods section).

The subject of another series is Meloidogyne graminicola. Description: Meloidogyne graminicola infection in rice cv. Kitaake, additional C4H inhibitors (Example 6). The settings on record: foliar spray, N=8. Format: in vivo. Here is the method:
(§1) Unless otherwise mentioned, all chemicals for nematode experiments were applied as a foliar spray consisting of the target compound at a concentration of 300 μM together with 0.1% (v/v) Tween 20 surfactant (Calbiochem) in distilled water. Again unless otherwise mentioned, all treatments for the nematode experiments were carried out three times: one and eight days before pathogen inoculation and seven days after pathogen inoculation. In all cases, plants were sprayed until run-off with an atomizer.
Infection experiments with M. graminicola were performed by inoculating host plants 14 days after transfer to SAP by introducing the desired amount of J2 juveniles next to the root system using a micro pipette. Rice plants (cv. Nipponbare or Kitaake) were inoculated with 250 J2 juveniles per plant; wheat plants (cv. Sahara) were inoculated with 600 J2 juveniles per plant. Plants were harvested 14 days after inoculation. At this point, the plants were phenotyped by measuring the shoot and root length with a ruler, counting the number of adventitious roots and in some experiments by measuring leaf area using the EasyLeafArea software (Easlon and Bloom, 2014) and by determining shoot dry mass after 72 hours of drying in an oven at 70° C. Root systems were then stained in acid fuchsine as described in (Byrd et al., 1983) and left to destain in glycerol with 1 ml/l fuming HCl added for approximately ten days. The number of galls and nematodes was then counted using a binocular microscope.
Four different C4H inhibitors were used: piperonylic acid (PA), piperine (PIP), 4-propynyloxybenzoic acid (4PB) and 3-(4-pyridyl)acrylic acid (3PA).

The next series deals with wheat. Description: Phytotoxicity of foliar spray in uninfected wheat (Example 1). The series is classed as in vivo, Triticum aestivum. The settings on record: 500 μM foliar spray, 8 plants per treatment. Here is the method:
For Examples 1, 5 and 10, seeds of the winter wheat cultivar Sahara (Aveve Agrarisch, Landen, Belgium) were used. Seeds were washed in a 10% ethanol solution to remove any residual traces of fungicide and then germinated on wet paper at room temperature for four days; seeds were transferred to SAP tubes and placed in a growth chamber (25° C., 16 hours per day of light). Plants were watered with 8 ml of half-strength Hoagland solution every two days for the first ten days and with 8 ml of full strength Hoagland solution every two days afterwards.
as §1
Short-term phytotoxicity experiments (Example 1) were analyzed using non-parametric methods. For each variable, overall significance was determined using the Kruskal-Wallis test (Kruskal and Wallis, 1952), followed by a posthoc Conover-Iman test (Conover and Iman, 1981) with Hommel multiplicity correction (Hommel, 1988) if the Kruskal-Wallis test was significant. When only two groups were present, the Wilcoxon-Mann-Whitney test was used (Mann and Whitney, 1947).
To test whether C4H inhibitors induce phytotoxic effects in crops, uninfected tomato, wheat and carrot were treated with piperonylic acid (PA), 4-iodobenzoic acid (4-IBA) and piperic acid (PIA) at a concentration of 500 μM through foliar application. At harvest, leaf area (or shoot length in the case of wheat) and primary root length were recorded. The BBCH developmental stage (Lancashire et al., 1991), a measure of developmental retardation, was used to test for effects on development. Finally, the presence of visible signs of phytotoxicity such as chlorosis, discoloration or necrosis was recorded.

Where [2] appears, read: infected sugar beet, mean ± SD, n = 8.

As for `O=C(O)c1ccc2c(c1)OCO2` [PA, Piperonylic acid], in the series on Meloidogyne incognita, the “change of number of galls, plants treated with both PA and DIECA vs untreated wild type plants” value was −31%. Also, the “difference in number of galls, plants treated with both PA and DIECA vs PA-treated wild type plants” value in the series on Meloidogyne incognita (not significant) is listed as “+14%”. In addition, in the series with Heterodera schachtii (setting [2]), the “Number of mature cysts” value was 7.5 ± 4.4, the “Proportion of mature cysts” value worked out at 0.48 ± 0.25 and the “Total number of cysts” value was 15.3 ± 0.7. Also, the “reduction of the number of Heterodera schachtii nematodes” value in the series with Heterodera schachtii (sugar beet, statistically insignificant) was 20%. Besides, the “effect on bacterial growth” value in series [1] is “no effect on bacterial growth”. Further, the OD600 in series [1] (ten-fold diluted culture, printed 0.737 vs. 0.757) is 0.737. Besides, the “reduction in the number of galls compared to the control group” value with Meloidogyne graminicola is −40%. In the series with wheat (mean ± standard deviation), this molecule had a Root length of 15.75 ± 2.64 cm and a Shoot length of 31.75 ± 2.84 cm. The BBCH stage in the series with wheat (median ± interquartile range) stood at 13 ± 0.
